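Where inhibition never reached the appropriate level, the endpoint shown equals the highest concentration tested. Otherwise, values were interpolated linearly from a five-concentration, 48-hour dose response in 96-well plates. TGI is the concentration that stops growth completely.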
Legend:
Assay in all cases: NCI tumour cell line growth inhibition, 48 h
UACC-62 melanoma = test system: UACC-62 melanoma
SN12C renal = test system: SN12C renal
SF-268 CNS = test system: SF-268 CNS
MDA-N = test system: MDA-N
NCI-H460 lung = test system: NCI-H460 lung
EKVX NSCLC = test system: EKVX NSCLC
TK-10 renal = test system: TK-10 renal
SW-620 colon = test system: SW-620 colon
HL-60(TB) leukemia = test system: HL-60(TB) leukemia
IGROV1 ovarian = test system: IGROV1 ovarian
RXF 393 renal = test system: RXF 393 renal
SK-OV-3 ovarian = test system: SK-OV-3 ovarian
MCF7 breast = test system: MCF7 breast
CCRF-CEM leukemia = test system: CCRF-CEM leukemia
NCI-H226 lung = test system: NCI-H226 lung
SR leukemia = test system: SR leukemia
OVCAR-3 ovarian = test system: OVCAR-3 ovarian
A498 renal = test system: A498 renal
M14 melanoma = test system: M14 melanoma
RPMI-8226 leukemia = test system: RPMI-8226 leukemia
DU-145 prostate = test system: DU-145 prostate
HCC-2998 colon = test system: HCC-2998 colon
SNB-19 CNS = test system: SNB-19 CNS
HS 578T breast = test system: HS 578T breast
HOP-92 NSCLC = test system: HOP-92 NSCLC
MDA-MB-231 breast = test system: MDA-MB-231 breast
UO-31 renal = test system: UO-31 renal
BT-549 breast = test system: BT-549 breast
NCI-H522 lung = test system: NCI-H522 lung
T-47D breast = test system: T-47D breast
MOLT-4 leukemia = test system: MOLT-4 leukemia
U251 CNS = test system: U251 CNS
SF-539 CNS = test system: SF-539 CNS
ACHN renal = test system: ACHN renal
MDA-MB-435 = test system: MDA-MB-435
OVCAR-8 ovarian = test system: OVCAR-8 ovarian
A549 NSCLC = test system: A549 NSCLC
SK-MEL-5 melanoma = test system: SK-MEL-5 melanoma
786-0 renal = test system: 786-0 renal
OVCAR-4 ovarian = test system: OVCAR-4 ovarian
HOP-62 NSCLC = test system: HOP-62 NSCLC
SK-MEL-2 melanoma = test system: SK-MEL-2 melanoma
HCT-15 colon = test system: HCT-15 colon
K-562 leukemia = test system: K-562 leukemia
UACC-257 melanoma = test system: UACC-257 melanoma
NCI-H23 lung = test system: NCI-H23 lung
SK-MEL-28 melanoma = test system: SK-MEL-28 melanoma
OVCAR-5 ovarian = test system: OVCAR-5 ovarian
PC-3 prostate = test system: PC-3 prostate
KM12 colon = test system: KM12 colon
SF-295 CNS = test system: SF-295 CNS
LOX IMVI melanoma = test system: LOX IMVI melanoma
HCT-116 colon = test system: HCT-116 colon
COLO 205 colon = test system: COLO 205 colon
CAKI-1 renal = test system: CAKI-1 renal
NCI/ADR-RES ovarian = test system: NCI/ADR-RES ovarian
HT29 colon = test system: HT29 colon
MALME-3M melanoma = test system: MALME-3M melanoma
SNB-75 CNS = test system: SNB-75 CNS

## COc1ccc(-c2cc3cc(Cl)cc(Cl)c3oc2=O)cc1OC
UACC-62 melanoma
  TGI: > 100 µM
SN12C renal
  TGI: > 100 µM
SF-268 CNS
  TGI: > 100 µM
MDA-N
  TGI: > 100 µM
NCI-H460 lung
  TGI: > 100 µM
EKVX NSCLC
  TGI: > 100 µM
TK-10 renal
  TGI: > 100 µM
SW-620 colon
  TGI: > 100 µM
HL-60(TB) leukemia
  TGI: > 100 µM
IGROV1 ovarian
  TGI: > 100 µM
RXF 393 renal
  TGI: 75.8 µM
SK-OV-3 ovarian
  TGI: > 100 µM
MCF7 breast
  TGI: > 100 µM
CCRF-CEM leukemia
  TGI: > 100 µM
NCI-H226 lung
  TGI: > 100 µM
SR leukemia
  TGI: > 100 µM
OVCAR-3 ovarian
  TGI: > 100 µM
A498 renal
  TGI: > 100 µM
M14 melanoma
  TGI: > 100 µM
RPMI-8226 leukemia
  TGI: > 100 µM
DU-145 prostate
  TGI: > 100 µM
HCC-2998 colon
  TGI: > 100 µM
SNB-19 CNS
  TGI: > 100 µM
HS 578T breast
  TGI: 76.1 µM
HOP-92 NSCLC
  TGI: > 100 µM
MDA-MB-231 breast
  TGI: > 100 µM
UO-31 renal
  TGI: > 100 µM
BT-549 breast
  TGI: > 100 µM
NCI-H522 lung
  TGI: > 100 µM
T-47D breast
  TGI: > 100 µM
MOLT-4 leukemia
  TGI: > 100 µM
U251 CNS
  TGI: > 100 µM
SF-539 CNS
  TGI: > 100 µM
ACHN renal
  TGI: > 100 µM
MDA-MB-435
  TGI: > 100 µM
OVCAR-8 ovarian
  TGI: > 100 µM
A549 NSCLC
  TGI: > 100 µM
SK-MEL-5 melanoma
  TGI: > 100 µM
786-0 renal
  TGI: > 100 µM
OVCAR-4 ovarian
  TGI: > 100 µM
HOP-62 NSCLC
  TGI: > 100 µM
SK-MEL-2 melanoma
  TGI: > 100 µM
HCT-15 colon
  TGI: > 100 µM
K-562 leukemia
  TGI: > 100 µM
UACC-257 melanoma
  TGI: > 100 µM
NCI-H23 lung
  TGI: > 100 µM
SK-MEL-28 melanoma
  TGI: > 100 µM
OVCAR-5 ovarian
  TGI: > 100 µM
PC-3 prostate
  TGI: > 100 µM
KM12 colon
  TGI: > 100 µM
SF-295 CNS
  TGI: > 100 µM
LOX IMVI melanoma
  TGI: > 100 µM
HCT-116 colon
  TGI: > 100 µM
COLO 205 colon
  TGI: > 100 µM
CAKI-1 renal
  TGI: > 100 µM
NCI/ADR-RES ovarian
  TGI: > 100 µM
HT29 colon
  TGI: > 100 µM
MALME-3M melanoma
  TGI: > 100 µM

## CC1(C)C=C(/C=C2/N(S(=O)(=O)C(F)(F)F)C(/C=C3/N(S(=O)(=O)C(F)(F)F)C(C)(C#N)CC3(C)C)=CC2(C)C)N=C1/C=C1/CC(C)(C)C(=O)N1 (stereo unspecified)
UACC-62 melanoma
  TGI: 69.1 µM
SN12C renal
  TGI: > 100 µM
SF-268 CNS
  TGI: 36 µM
MDA-N
  TGI: > 100 µM
NCI-H460 lung
  TGI: > 100 µM
EKVX NSCLC
  TGI: 81.2 µM
TK-10 renal
  TGI: > 100 µM
SW-620 colon
  TGI: > 100 µM
HL-60(TB) leukemia
  TGI: 21.2 µM
IGROV1 ovarian
  TGI: 62.9 µM
RXF 393 renal
  TGI: 81.3 µM
SK-OV-3 ovarian
  TGI: > 100 µM
MCF7 breast
  TGI: > 100 µM
CCRF-CEM leukemia
  TGI: 52.8 µM
SNB-75 CNS
  TGI: > 100 µM
NCI-H226 lung
  TGI: > 100 µM
SR leukemia
  TGI: > 100 µM
OVCAR-3 ovarian
  TGI: > 100 µM
A498 renal
  TGI: > 100 µM
M14 melanoma
  TGI: > 100 µM
RPMI-8226 leukemia
  TGI: 23.4 µM
DU-145 prostate
  TGI: > 100 µM
HCC-2998 colon
  TGI: > 100 µM
SNB-19 CNS
  TGI: > 100 µM
HS 578T breast
  TGI: 57.7 µM
HOP-92 NSCLC
  TGI: 95.3 µM
MDA-MB-231 breast
  TGI: > 100 µM
UO-31 renal
  TGI: > 100 µM
BT-549 breast
  TGI: > 100 µM
NCI-H522 lung
  TGI: 27.9 µM
T-47D breast
  TGI: > 100 µM
MOLT-4 leukemia
  TGI: > 100 µM
U251 CNS
  TGI: > 100 µM
SF-539 CNS
  TGI: 84.5 µM
ACHN renal
  TGI: > 100 µM
MDA-MB-435
  TGI: > 100 µM
OVCAR-8 ovarian
  TGI: > 100 µM
A549 NSCLC
  TGI: > 100 µM
SK-MEL-5 melanoma
  TGI: 71.6 µM
786-0 renal
  TGI: > 100 µM
OVCAR-4 ovarian
  TGI: > 100 µM
HOP-62 NSCLC
  TGI: > 100 µM
SK-MEL-2 melanoma
  TGI: > 100 µM
HCT-15 colon
  TGI: 73.6 µM
K-562 leukemia
  TGI: > 100 µM
UACC-257 melanoma
  TGI: > 100 µM
NCI-H23 lung
  TGI: > 100 µM
SK-MEL-28 melanoma
  TGI: > 100 µM
OVCAR-5 ovarian
  TGI: > 100 µM
PC-3 prostate
  TGI: > 100 µM
KM12 colon
  TGI: > 100 µM
SF-295 CNS
  TGI: > 100 µM
LOX IMVI melanoma
  TGI: 72.9 µM
HCT-116 colon
  TGI: 42.8 µM
COLO 205 colon
  TGI: 39.2 µM
CAKI-1 renal
  TGI: > 100 µM
NCI/ADR-RES ovarian
  TGI: > 100 µM
HT29 colon
  TGI: > 100 µM

## CC(=O)Oc1ccn2nc(C)c(Br)c2c1
UACC-62 melanoma
  TGI: > 100 µM
SN12C renal
  TGI: > 100 µM
SF-268 CNS
  TGI: > 100 µM
MDA-N
  TGI: > 100 µM
NCI-H460 lung
  TGI: > 100 µM
EKVX NSCLC
  TGI: > 100 µM
TK-10 renal
  TGI: > 100 µM
SW-620 colon
  TGI: > 100 µM
HL-60(TB) leukemia
  TGI: > 86.5 µM
IGROV1 ovarian
  TGI: > 100 µM
RXF 393 renal
  TGI: > 100 µM
MCF7 breast
  TGI: > 100 µM
CCRF-CEM leukemia
  TGI: > 100 µM
SNB-75 CNS
  TGI: 97.2 µM
NCI-H226 lung
  TGI: > 100 µM
SR leukemia
  TGI: > 100 µM
OVCAR-3 ovarian
  TGI: > 100 µM
A498 renal
  TGI: > 100 µM
M14 melanoma
  TGI: > 100 µM
DU-145 prostate
  TGI: > 100 µM
HCC-2998 colon
  TGI: > 100 µM
SNB-19 CNS
  TGI: > 100 µM
HS 578T breast
  TGI: > 100 µM
HOP-92 NSCLC
  TGI: > 100 µM
MDA-MB-231 breast
  TGI: > 100 µM
BT-549 breast
  TGI: > 100 µM
NCI-H522 lung
  TGI: 97.1 µM
T-47D breast
  TGI: > 100 µM
MOLT-4 leukemia
  TGI: > 100 µM
U251 CNS
  TGI: > 100 µM
SF-539 CNS
  TGI: > 100 µM
ACHN renal
  TGI: > 100 µM
MDA-MB-435
  TGI: > 61.8 µM
OVCAR-8 ovarian
  TGI: > 100 µM
A549 NSCLC
  TGI: > 100 µM
SK-MEL-5 melanoma
  TGI: > 100 µM
786-0 renal
  TGI: > 100 µM
OVCAR-4 ovarian
  TGI: > 100 µM
HOP-62 NSCLC
  TGI: > 100 µM
SK-MEL-2 melanoma
  TGI: > 100 µM
HCT-15 colon
  TGI: > 100 µM
K-562 leukemia
  TGI: > 100 µM
UACC-257 melanoma
  TGI: 99.5 µM
NCI-H23 lung
  TGI: > 100 µM
SK-MEL-28 melanoma
  TGI: > 100 µM
OVCAR-5 ovarian
  TGI: > 100 µM
PC-3 prostate
  TGI: > 86.5 µM
KM12 colon
  TGI: > 100 µM
SF-295 CNS
  TGI: > 100 µM
LOX IMVI melanoma
  TGI: > 100 µM
HCT-116 colon
  TGI: > 100 µM
COLO 205 colon
  TGI: 75.5 µM
NCI/ADR-RES ovarian
  TGI: > 100 µM
HT29 colon
  TGI: > 100 µM
MALME-3M melanoma
  TGI: > 100 µM

Source: PubChem BioAssay (NCI)
